Assay results published in ChEMBL document CHEMBL3351383, “Combination of chiral linkers with thiophenecarboximidamide heads to improve the selectivity of inhibitors of neuronal nitric oxide synthase” (Bioorg Med Chem Lett, 2014).

How the values were obtained:
[1] = Selectivity index, ratio of Ki for bovine eNOS to KI for rat nNOS
[2] = Selectivity index, ratio of Ki for mouse macrophage iNOS to KI for rat nNOS

| Ratio Ki [1] | Ratio Ki [2] | Compound |
| --- | --- | --- |
| 86 | 90 | N=C(Nc1cccc(O[C@H]2CN[C@H](COCc3cccc(F)c3)C2)c1)c1cccs1 |
| 18 | 92 | N=C(Nc1cccc(OC[C@@H]2C[C@@H](OCc3cccc(F)c3)CN2)c1)c1cccs1 |
| 142 | 163 | N=C(Nc1ccc(OC[C@@H]2C[C@@H](Oc3cccc(NC(=N)c4cccs4)c3)CN2)cc1)c1cccs1 |
